# Data reported in patent US20250144179A1, “PEPTIDE HORMONE TO PREVENT OR TREAT VASOSPASM, BRAIN INJURY OR CEREBRAL EDEMA” (UNIVERSITY OF FLORIDA RESEARCH FOUNDATION, INCORPORATED, priority 2022, published 2025).
# Entries after “also recorded” stand apart in the source; their conditions may differ.
# Experiments:
# Type in all cases: in vivo, mouse
# [1] = system: ZO-1; assay: Western blot of ZO-1 in brain after SAH; conditions: wild-type mice, adropin 450 nmol/kg i.p. vs vehicle
# Experimental: (§1) Synthetic adropin^34-76 peptide was supplied from Bachem (Bubendorf, Switzerland) and diluted in 0.1% BSA in saline. 0.1% BSA in saline was used as vehicle control for all experiments. Adropin (450 nmol/kg) or an equivalent volume of vehicle was delivered via intraperitoneal injection 15 minutes post-SAH. For experiments ending at 24 hours post-SAH, an identical dose of adropin/vehicle was given again 12 hours later. For experiments ending 7 days post-SAH, adropin/vehicle was given again on days 1, 3 & 5 post-SAH. In the aneurysm rupture model, adropin was given at a dose of 450 nmol/kg starting 3 days before aneurysm induction (elastase injection). Adropin was given every other day until sacrifice
# SAH was modeled using the anterior circulation single autologous blood injection method^25,33 with minor adjustments. Mice were anesthetized with ketamine (100 mg/kg) and xylazine (10 mg/kg) before removing hair from scalp and cleaning with serial betadine—saline washes. The tail was also prepped from the base extending 1 cm distally. Mice were then fixed into a stereotaxic frame and body temperature maintained at 37° C. The scalp was incised along the sagittal suture from bregma to the nasal bone. […]
# At 24 hours or 7 days post-SAH, mice were deeply anesthetized and perfused with 10 mL of ice-cold PBS. […] Samples were centrifuged, supernatant collected, and protein quantified via Bradford assay. […]
# [2] = Mean arterial pressure in the aneurysm rupture model; conditions: before and after aneurysm induction, adropin vs vehicle
# Experimental: as §1
# Cerebral aneurysms were induced as previously described. Briefly, mice were anesthetized with ketamine (100 mg/kg) and xylazine (10 mg/kg) before the left common carotid artery and the right renal artery were ligated with 7-0 silk suture (Ethicon Inc., Somerville, New Jersey). Carotid and renal artery ligations are hereafter referred to as ligations. […]
# [3] = system: eNOS^−/− mice, SAH model; assay: Sensorimotor deficits (corner test) after SAH in eNOS knockout mice
# From the text: (§2) All animal experiments were approved by IACUC (Institutional Animal Care and Use Committee) and performed in accordance with ARRIVE (Animal Research: Reporting of In Vivo Experiments) guidelines. All animals were 12-15-week-old females and were housed in pathogen-free housing with ad libitum food and water and 12-h light/dark cycling. Wild-type C57B1/6 mice were received from Charles River Labs (Wilmington, Mass.) and eNOS knockout mice were obtained from The Jackson Laboratory (Bar Harbor, Maine). eNOS knockout breeding pairs were genotyped prior to breeding and F1 progeny used for all experiments. The following primers were used for genotyping: eNOS knockout (Nos3^−/−): F-5′-[…]-3′, R-5′-[…]-3′. All animals underwent twice daily monitoring from institutional animal care services staff and/or investigators. Mice were randomized to treatment groups prior to surgical procedures.
# as §1, with “In the aneurysm rupture model, adropin was given at a dose of 450 nmol/kg starting 3 days before aneurysm induction (elastase injection). Adropin was given every other day until sacrifice” left out
# [4] = system: eNOS^−/− mice, SAH model; assay: MCA diameter (vasospasm) after SAH in eNOS knockout mice; conditions: one week post-SAH
# From the text: as §2, with “Mice were randomized to treatment groups prior to surgical procedures.” left out
# Middle cerebral artery diameter were measured as previously reported.^36,37 One week post-SAH, mice were deeply anesthetized with ketamine and xylazine before being serially perfused through the left ventricle with PBS (5 mL), 4% PFA (15 mL), and 20% India ink dissolved in 5% gelatin. […] Brains were imaged and analyzed by an observer blinded to group assignment. The narrowest diameter within the first 2000 μm of the middle cerebral artery (MCA) after the terminal interior carotid artery bifurcation (M1 segment) was measured to assess vasospasm. […]
substance,measurement,setting,value
adropin (CHSRSADVDSLSESSPNSSPGPCPEKAPPPQKPSHEGSYLLQP) [Synthetic adropin^34-76 peptide from Bachem],ZO-1 expression (immunoblot),[1],preserved the expression of occludin and ZO-1
same,systemic blood pressure / mean arterial pressure (MAP),[2],No difference was found in blood pressure; also recorded: no effect on MAP before or after aneurysm induction
same,sensorimotor deficits (corner test turn preference),[3],adropin also had no effect on sensorimotor deficits
same,vasospasm (MCA diameter),[4],adropin did not prevent vasospasm
